The source of these data is patent publication US9359358B2, “Cyclohexyl azetidine derivatives as JAK inhibitors” (Incyte Holdings Corporation, priority 2011, dated 2016).

Test [1] concerns the target T1, human JAK1 (Homo sapiens, UniProt P23458).
T1 construct: human JAK1 (a.a. 837-1142); His tag (N); made in house; host or cells: insect cells (baculovirus)
Nature of the test: In Vitro JAK Kinase Assay (HTRF, phosphorylation of a biotinylated peptide), JAK1. Format: biochemical. Conditions: catalytic domain a.a. 837-1142, assay of Example A. The procedure, abridged: (§1)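 HTRF detection (SA-APC plus Eu-labeled anti-phosphotyrosine Py20, 40 min after EDTA stop) quantified biotinylated-peptide phosphorylation. Kinase reactions with human JAK1 or JAK2 catalytic domains lasted 1 h at room temperature.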

Test [2] addresses T2, human JAK2 (Homo sapiens, UniProt O60674).
T2 construct: JAK2 (a.a. 828-1132); His tag (N); made in house; host or cells: insect cells (baculovirus)
Nature of the test: In Vitro JAK Kinase Assay (HTRF, phosphorylation of a biotinylated peptide), JAK2. The format is biochemical. Conditions: assay of Example A. The procedure, abridged: as §1

Counter-ions that a name gives are not always drawn. A value given as a limit tells only on which side of the number the result lay.

T1 sequence (P23458 849-1154): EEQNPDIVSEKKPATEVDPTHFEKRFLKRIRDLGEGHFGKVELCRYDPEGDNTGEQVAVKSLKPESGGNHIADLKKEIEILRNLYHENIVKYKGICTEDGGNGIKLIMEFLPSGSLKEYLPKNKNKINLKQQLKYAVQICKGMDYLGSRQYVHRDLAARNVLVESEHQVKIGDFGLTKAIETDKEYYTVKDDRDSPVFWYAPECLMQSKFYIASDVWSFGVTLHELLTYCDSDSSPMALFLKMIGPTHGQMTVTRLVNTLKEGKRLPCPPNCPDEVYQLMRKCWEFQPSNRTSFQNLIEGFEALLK
T2 sequence (O60674 828-1132): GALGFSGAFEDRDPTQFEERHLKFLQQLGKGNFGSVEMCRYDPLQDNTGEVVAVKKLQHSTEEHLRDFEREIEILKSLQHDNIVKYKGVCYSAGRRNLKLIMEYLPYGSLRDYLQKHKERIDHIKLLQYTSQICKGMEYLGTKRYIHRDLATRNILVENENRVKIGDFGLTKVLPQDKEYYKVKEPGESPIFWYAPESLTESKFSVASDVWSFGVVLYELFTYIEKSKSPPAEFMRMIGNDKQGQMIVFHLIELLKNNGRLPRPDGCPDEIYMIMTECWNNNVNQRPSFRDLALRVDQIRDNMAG

Turning to `N#CCC1(n2cc(-c3ncnc4[nH]ccc34)cn2)CN([C@H]2CC[C@@H](Oc3cc(C(=O)N4CC(O)C4)cc(C(F)(F)F)n3)CC2)C1` [Example 89, {1-(cis-4-{[4-[(3-hydroxyazetidin-1-yl)carbonyl]-6-(trifluoromethyl)pyridin-2-yl]oxy}cyclohexyl)-3-[4-(7H-pyrrolo[2,3-d]pyrimidin-4-yl)-1H-pyrazol-1-yl]azetidin-3-yl}acetonitrile bis(trifluoroacetate)], in test [1] (Table 5), the IC50 is less than 10 nM. In addition, in test [2] (Table 5), the “JAK2/JAK1 IC50 ratio” value is “≧10”.
Compound `N#CCC1(n2cc(-c3ncnc4[nH]ccc34)cn2)CN([C@H]2CC[C@@H](Oc3cc(CN)cc(C(F)(F)F)n3)CC2)C1` [Example 66, {1-(cis-4-{[4-(aminomethyl)-6-(trifluoromethyl)pyridin-2-yl]oxy}cyclohexyl)-3-[4-(7H-pyrrolo[2,3-d]pyrimidin-4-yl)-1H-pyrazol-1-yl]azetidin-3-yl}acetonitrile tris(trifluoroacetate)] yielded an IC50 in test [1] (Table 5) of less than 10 nM. Further, the “JAK2/JAK1 IC50 ratio” value in test [2] (Table 5) is reported as “≧10”.
`CC(C)(C)NCc1cc(O[C@H]2CC[C@@H](N3CC(CC#N)(n4cc(-c5ncnc6[nH]ccc56)cn4)C3)CC2)nc(C(F)(F)F)n1` [Example 44, {1-(cis-4-{[6-[(tert-Butylamino)methyl]-2-(trifluoromethyl)pyrimidin-4-yl]oxy}cyclohexyl)-3-[4-(7H-pyrrolo[2,3-d]pyrimidin-4-yl)-1H-pyrazol-1-yl]azetidin-3-yl}acetonitrile tetrakis(trifluoroacetate)]: the 50% inhibitory concentration (IC50) in test [1] (Table 4) was less than 10 nM. For the same compound, in test [2] (Table 4), the “JAK2/JAK1 IC50 ratio” value is “≧10”.
With `N#CCC1(n2cc(-c3ncnc4[nH]ccc34)cn2)CN([C@H]2CC[C@@H](Oc3cc(CNCC(F)(F)F)nc(C(F)(F)F)n3)CC2)C1.O=C(O)C(F)(F)F.O=C(O)C(F)(F)F.O=C(O)C(F)(F)F` [Example 14, [3-[4-(7H-pyrrolo[2,3-d]pyrimidin-4-yl)-1H-pyrazol-1-yl]-1-(cis-4-{[6-{[(2,2,2-trifluoroethyl)amino]methyl}-2-(trifluoromethyl)pyrimidin-4-yl]oxy}cyclohexyl)azetidin-3-yl]acetonitrile tris(trifluoroacetate)], the IC50 in test [1] (Table 4) was less than 10 nM. In test [2] (Table 4), the “JAK2/JAK1 IC50 ratio” value is on record as “≧10”.
For `CC(O)(CO)c1cc(OC2CCC(N3CC(CC#N)(n4cc(-c5ncnc6[nH]ccc56)cn4)C3)CC2)nc(C(F)(F)F)n1` (single isomer, unassigned) [Example 57a, {1-(cis-4-{[6-(1,2-dihydroxy-1-methylethyl)-2-(trifluoromethyl)pyrimidin-4-yl]oxy}cyclohexyl)-3-[4-(7H-pyrrolo[2,3-d]pyrimidin-4-yl)-1H-pyrazol-1-yl]azetidin-3-yl}acetonitrile tris(trifluoroacetate) (salt)], in that order: less than 10 nM and “≧10”.
In the case of `N#CCC1(n2cc(-c3ncnc4[nH]ccc34)cn2)CN([C@H]2CC[C@@H](Oc3cc(CNCC4CC4)cc(C(F)(F)F)n3)CC2)C1` [Example 76, {1-(cis-4-{[4-{[(cyclopropylmethyl)amino]methyl}-6-(trifluoromethyl)pyridin-2-yl]oxy}cyclohexyl)-3-[4-(7H-pyrrolo[2,3-d]pyrimidin-4-yl)-1H-pyrazol-1-yl]azetidin-3-yl}acetonitrile tris(trifluoroacetate)], in test [1] (Table 5), the IC50 was less than 10 nM. Also, the “JAK2/JAK1 IC50 ratio” value in test [2] (Table 5) is given as “≧10”.
In test [1] (Table 4), `CC(C)(O)c1cc(O[C@H]2CC[C@@H](N3CC(CC#N)(n4cc(-c5ncnc6[nH]ccc56)cn4)C3)CC2)nc(C(F)(F)F)n1` [Example 43, {1-(cis-4-{[6-(1-Hydroxy-1-methylethyl)-2-(trifluoromethyl)pyrimidin-4-yl]oxy}cyclohexyl)-3-[4-(7H-pyrrolo[2,3-d]pyrimidin-4-yl)-1H-pyrazol-1-yl]azetidin-3-yl}acetonitrile bis(trifluoroacetate)] had an IC50 of less than 10 nM. Moreover, the “JAK2/JAK1 IC50 ratio” value in test [2] (Table 4) is listed as “≧10”.
In the case of `N#CCC1(n2cc(-c3ncnc4[nH]ccc34)cn2)CN([C@H]2CC[C@@H](Oc3cc(Cn4cccn4)cc(C(F)(F)F)n3)CC2)C1` [Example 100, {1-(cis-4-{[4-(1H-pyrazol-1-ylmethyl)-6-(trifluoromethyl)pyridin-2-yl]oxy}cyclohexyl)-3-[4-(7H-pyrrolo[2,3-d]pyrimidin-4-yl)-1H-pyrazol-1-yl]azetidin-3-yl}acetonitrile tris(trifluoroacetate)], the IC50 in test [1] (Table 5) is less than 10 nM. Besides, the “JAK2/JAK1 IC50 ratio” value in test [2] (Table 5) is “≧10”.
With `CNCc1cc(O[C@H]2CC[C@@H](N3CC(CC#N)(n4cc(-c5ncnc6[nH]ccc56)cn4)C3)CC2)nc(C(F)(F)F)c1` [Example 67, {1-(cis-4-{[4-[(methylamino)methyl]-6-(trifluoromethyl)pyridin-2-yl]oxy}cyclohexyl)-3-[4-(7H-pyrrolo[2,3-d]pyrimidin-4-yl)-1H-pyrazol-1-yl]azetidin-3-yl}acetonitrile tris(trifluoroacetate)], the IC50 in test [1] (Table 5) was less than 10 nM. Besides, in test [2] (Table 5), the “JAK2/JAK1 IC50 ratio” value is given as “≧10”.
For the compound `CCN(C)C(=O)c1cc(O[C@H]2CC[C@@H](N3CC(CC#N)(n4cc(-c5ncnc6[nH]ccc56)cn4)C3)CC2)nc(C(F)(F)F)n1` [Example 48, 6-[(cis-4-{3-(cyanomethyl)-3-[4-(7H-pyrrolo[2,3-d]pyrimidin-4-yl)-1H-pyrazol-1-yl]azetidin-1-yl}cyclohexyl)oxy]-N-ethyl-N-methyl-2-(trifluoromethyl)pyrimidine-4-carboxamide bis(trifluoroacetate)], the IC50 in test [1] (Table 4) is less than 10 nM. Also, in test [2] (Table 4), the “JAK2/JAK1 IC50 ratio” value is “≧10”.
`C[C@@H](CO)NC(=O)c1cc(O[C@H]2CC[C@@H](N3CC(CC#N)(n4cc(-c5ncnc6[nH]ccc56)cn4)C3)CC2)nc(C(F)(F)F)c1` [Example 84, 2-[(cis-4-{3-(cyanomethyl)-3-[4-(7H-pyrrolo[2,3-d]pyrimidin-4-yl)-1H-pyrazol-1-yl]azetidin-1-yl}cyclohexyl)oxy]-N-[(1S)-2-hydroxy-1-methylethyl]-6-(trifluoromethyl)isonicotinamide bis(trifluoroacetate)] returned an IC50 in test [1] (Table 5) of less than 10 nM. Besides, the “JAK2/JAK1 IC50 ratio” value in test [2] (Table 5) was “≧10”.
`COCCCNCc1cc(O[C@H]2CC[C@@H](N3CC(CC#N)(n4cc(-c5ncnc6[nH]ccc56)cn4)C3)CC2)nc(C(F)(F)F)n1` [Example 40, {1-(cis-4-{[6-{[(3-methoxypropyl)amino]methyl}-2-(trifluoromethyl)pyrimidin-4-yl]oxy}cyclohexyl)-3-[4-(7H-pyrrolo[2,3-d]pyrimidin-4-yl)-1H-pyrazol-1-yl]azetidin-3-yl}acetonitrile tris(trifluoroacetate)]: in test [1] (Table 4), the IC50 was less than 10 nM. Further, the “JAK2/JAK1 IC50 ratio” value in test [2] (Table 4) is “≧10”.
In test [1] (Table 5), `CN(C(=O)c1cc(O[C@H]2CC[C@@H](N3CC(CC#N)(n4cc(-c5ncnc6[nH]ccc56)cn4)C3)CC2)nc(C(F)(F)F)c1)C1CC1` [Example 87, 2-[(cis-4-{3-(cyanomethyl)-3-[4-(7H-pyrrolo[2,3-d]pyrimidin-4-yl)-1H-pyrazol-1-yl]azetidin-1-yl}cyclohexyl)oxy]-N-cyclopropyl-N-methyl-6-(trifluoromethyl)isonicotinamide bis(trifluoroacetate)] returned an IC50 of less than 10 nM. Further, in test [2] (Table 5), the “JAK2/JAK1 IC50 ratio” value was “≧10”.
